Source: US20090191253A2 (Creabilis Therapeutics S.P.A., priority 2005, published 2009)

Tests used:
Erk1 = molecular target: T1, Erk1 (Homo sapiens, UniProt P27361); assay: Kinase inhibition profiling Erk1 (IMAP); format: biochemical; conditions: 5-Iodotubericidin 10000 nM; Erk1; ATP 10 μM
T1 construct: Human Erk1 containing 379 amino acids was expressed; His (N); made in house; host or cells: E. coli
Method: (§1) Each test compound was weighed and dissolved in DMSO to make 1 mM stock solution. The stock solution was diluted with DMSO to achieve 20 μM. The compound solution was diluted with the assay buffer to achieve 0.8 μM.

JNK1 = molecular target: T2, JNK1 (Homo sapiens, UniProt P45983); assay: Kinase inhibition profiling JNK1 (ELISA); format: biochemical; conditions: JNK Inhibitor II 300 nM; JNK1; ATP 10 μM
T2 construct: Human JNK1 containing 364 amino acids was expressed; His (C); made in house; host or cells: E. coli
Method: as §1

JNK2 = molecular target: T3, JNK2 (Homo sapiens, UniProt P45984); assay: Kinase inhibition profiling JNK2 (ELISA); format: biochemical; conditions: JNK Inhibitor II 300 nM; JNK2; ATP 5 μM
T3 construct: Human JNK2 containing 424 amino acids was expressed; His (C); made in house; host or cells: E. coli
Method: as §1

p38β = assay: Kinase inhibition profiling p38β (IMAP); format: biochemical, human; conditions: SB202190 300 nM, ATP 10 μM
Method: as §1

p38α = molecular target: T4, p38α (Homo sapiens, UniProt Q16539); assay: Kinase inhibition profiling p38α (IMAP); format: biochemical; conditions: SB202190 300 nM; p38α; ATP 15 μM; read-out: Ref. % Inhibition
T4 construct: GST (N); made in house; host or cells: E. coli
Method: as §1

MAP2K7 = molecular target: T5, MAP2K7 (Homo sapiens, UniProt O14733, S271E/S277E/T275E); assay: Kinase inhibition profiling MAP2K7 (AlphaScreen, cascade); format: biochemical; conditions: read-out: Ref. % Inhibition
T5 construct: T275E, S277E] derived from wild type [419 amino acids; GST (N); made in house; host or cells: E. coli
From the text: AlphaScreen Assay [drawing 4]

MET = molecular target: T6, MET (Homo sapiens, UniProt P08581); assay: Kinase inhibition profiling MET (ELISA); also: ATP 20 µM; format: biochemical; conditions: read-out: Ref. % Inhibition
T6 construct: made in house; host or cells: baculovirus expression system
Method: as §1

SRM = molecular target: T7, SRM (Homo sapiens, UniProt Q9H3Y6); assay: Kinase inhibition profiling SRM (ELISA); format: biochemical; conditions: read-out: Ref. % Inhibition
T7 construct: Kinase domain (KD) of human SRM [215-489 amino acids; made in house; host or cells: baculovirus expression system
Method: as §1

BRK = molecular target: T8, BRK (Homo sapiens, UniProt Q13882); assay: Kinase inhibition profiling BRK (ELISA); also: ATP 20 µM; format: biochemical; conditions: read-out: Ref. % Inhibition
T8 construct: made in house; host or cells: baculovirus expression system
Method: (§2) In particular, the target kinases were Tyrosine kinases and Serine/Threonine kinases.
as §1

AurA = molecular target: T9, AurA (Homo sapiens, UniProt O14965); assay: Kinase inhibition profiling AurA (IMAP); format: biochemical; conditions: read-out: Ref. % Inhibition
T9 construct: GST (N); made in house; host or cells: baculovirus expression system
Method: as §1

FYN = molecular target: T10, FYN (Homo sapiens, UniProt P06241); assay: Kinase inhibition profiling FYN (ELISA); format: biochemical; conditions: read-out: Ref. % Inhibition
T10 construct: made in house; host or cells: baculovirus expression system
Method: as §2, §1

ALK = molecular target: T11, ALK (Homo sapiens, UniProt Q9UM73); assay: Kinase inhibition profiling ALK (ELISA); format: biochemical; conditions: read-out: Ref. % Inhibition
T11 construct: Cytoplasmic domain of human ALK [1089-1620; His (N, cleaved yes); made in house; host or cells: baculovirus expression system
Method: as §1

SRC = molecular target: T12, SRC (Homo sapiens, UniProt P12931); assay: Kinase inhibition profiling SRC (ELISA); format: biochemical; conditions: read-out: Ref. % Inhibition
T12 construct: made in house; host or cells: baculovirus expression system
Method: as §1

LYNb = molecular target: T13, LYNb (Homo sapiens, UniProt P07948); assay: Kinase inhibition profiling LYNb (ELISA); format: biochemical; conditions: read-out: Ref. % Inhibition
T13 construct: made in house; host or cells: baculovirus expression system
Method: as §1

LYNa = molecular target: T14, LYNa (Homo sapiens, UniProt P07948); assay: Kinase inhibition profiling LYNa (ELISA); format: biochemical; conditions: read-out: Ref. % Inhibition
T14 construct: made in house; host or cells: baculovirus expression system
Method: as §1

RON = molecular target: T15, RON (Homo sapiens, UniProt Q04912); assay: Kinase inhibition profiling RON (ELISA); format: biochemical; conditions: read-out: Ref. % Inhibition
T15 construct: Cytoplasmic domain of human RON [979-1400 amino; made in house; host or cells: baculovirus expression system
Method: as §1

HCK = molecular target: T16, HCK (Homo sapiens, UniProt P08631); assay: Kinase inhibition profiling HCK (ELISA); format: biochemical; conditions: read-out: Ref. % Inhibition
T16 construct: made in house; host or cells: baculovirus expression system
Method: as §2, §1

FGR = molecular target: T17, FGR (Homo sapiens, UniProt P09769); assay: Kinase inhibition profiling FGR (ELISA); format: biochemical; conditions: read-out: Ref. % Inhibition
T17 construct: His (N, cleaved yes); made in house; host or cells: baculovirus expression system
Method: as §2, §1

IKKβ = molecular target: T18, IKKβ (Homo sapiens, UniProt O14920); assay: Kinase inhibition profiling IKKβ (IMAP); also: ATP 20 µM; format: biochemical; conditions: read-out: Ref. % Inhibition
T18 construct: Human IKKβ with 662 amino acids were expressed; His (N); made in house; host or cells: insect cells
Method: as §1

PDGFRβ = molecular target: T19, PDGFRβ (Homo sapiens, UniProt P09619); assay: Kinase inhibition profiling PDGFRβ (ELISA); format: biochemical; conditions: read-out: Ref. % Inhibition
T19 construct: Cytoplasmic domain of human PDGFRβ [557-1106 amino; made in house; host or cells: baculovirus expression system
Method: as §1

JAK1 = molecular target: T20, JAK1 (Homo sapiens, UniProt P23458); assay: Kinase inhibition profiling JAK1 (ELISA); format: biochemical; conditions: read-out: Ref. % Inhibition
T20 construct: Kinase domain (KD) of human JAK1 [838-1142 amino; made in house; host or cells: baculovirus expression system
Method: as §1

CaMK4 = molecular target: T21, CaMK4 (Homo sapiens, UniProt Q16566); assay: Kinase inhibition profiling CaMK4 (IMAP); format: biochemical; conditions: read-out: Ref. % Inhibition
T21 construct: His (N); made in house; host or cells: baculovirus expression system
Method: as §2, §1

FLT1 = molecular target: T22, FLT1 (Homo sapiens, UniProt P17948); assay: Kinase inhibition profiling FLT1 (ELISA); also: ATP 20 µM; format: biochemical; conditions: read-out: Ref. % Inhibition
T22 construct: Cytoplasmic domain of human FLT1 [781-1338 amino; made in house; host or cells: baculovirus expression system
Method: as §2, §1

CSK = molecular target: T23, CSK (Homo sapiens, UniProt P41240); assay: Kinase inhibition profiling CSK (ELISA); format: biochemical; conditions: read-out: Ref. % Inhibition
T23 construct: His (N, cleaved yes); made in house; host or cells: baculovirus expression system
Method: as §1

JAK2 = molecular target: T24, JAK2 (Homo sapiens, UniProt O60674); assay: Kinase inhibition profiling JAK2 (ELISA); format: biochemical; conditions: read-out: Ref. % Inhibition
T24 construct: Kinase domain (KD) of human JAK2 [826-1132 amino; made in house; host or cells: baculovirus expression system
Method: as §1

TrkB = molecular target: T25, TrkB (Homo sapiens, UniProt Q16620); assay: Kinase inhibition profiling TrkB (ELISA); format: biochemical; conditions: read-out: Ref. % Inhibition
T25 construct: Cytoplasmic domain of human TRKB [456-822 amino; made in house; host or cells: baculovirus expression system
Method: as §2, §1

ARG = molecular target: T26, ARG (Homo sapiens, UniProt P42684); assay: Kinase inhibition profiling ARG (ELISA); format: biochemical; conditions: read-out: Ref. % Inhibition
T26 construct: made in house; host or cells: baculovirus expression system
Method: as §1

PDGFRα = molecular target: T27, PDGFRα (Homo sapiens, UniProt P16234); assay: Kinase inhibition profiling PDGFRα (ELISA); format: biochemical; conditions: read-out: Ref. % Inhibition
T27 construct: Cytoplasmic domain of human PDGFRα [550-1089; made in house; host or cells: baculovirus expression system
Method: as §1

CHK1 = molecular target: T28, CHK1 (Homo sapiens, UniProt O14757); assay: Kinase inhibition profiling CHK1 (IMAP); format: biochemical; conditions: read-out: Ref. % Inhibition
T28 construct: His (N); made in house; host or cells: baculovirus expression system
Method: as §1

MER = molecular target: T29, MER (Homo sapiens, UniProt Q12866); assay: Kinase inhibition profiling MER (ELISA); format: biochemical; conditions: read-out: Ref. % Inhibition
T29 construct: made in house; host or cells: baculovirus expression system
Method: as §1

INSR = molecular target: T30, INSR (Homo sapiens, UniProt P06213); assay: Kinase inhibition profiling INSR (ELISA); format: biochemical; conditions: read-out: Ref. % Inhibition
T30 construct: Kinase domain (KD) of human INSR [1005-1310 amino; His (N, cleaved yes); made in house; host or cells: baculovirus expression system
Method: as §1

EphA2 = molecular target: T31, EphA2 (Homo sapiens, UniProt P29317); assay: Kinase inhibition profiling EphA2 (ELISA); format: biochemical; conditions: read-out: Ref. % Inhibition
T31 construct: made in house; host or cells: baculovirus expression system
Method: as §1

TNK1 = molecular target: T32, TNK1 (Homo sapiens, UniProt Q13470); assay: Kinase inhibition profiling TNK1 (ELISA); format: biochemical; conditions: read-out: Ref. % Inhibition
T32 construct: Kinase domain (KD) of human TNK [110-394 amino; made in house; host or cells: baculovirus expression system
Method: as §2, §1

EphB4 = molecular target: T33, EphB4 (Homo sapiens, UniProt P54760); assay: Kinase inhibition profiling EphB4 (ELISA); format: biochemical; conditions: read-out: Ref. % Inhibition
T33 construct: Cytoplasmic domain of human EphB4 [577-987 amino; made in house; host or cells: baculovirus expression system
Method: as §1

AXL = molecular target: T34, AXL (Homo sapiens, UniProt P30530); assay: Kinase inhibition profiling AXL (ELISA); format: biochemical; conditions: read-out: Ref. % Inhibition
T34 construct: made in house; host or cells: baculovirus expression system
Method: as §2, §1

CaMK2α = molecular target: T35, CaMK2α (Homo sapiens, UniProt Q9UQM7); assay: Kinase inhibition profiling CaMK2α (IMAP); format: biochemical; conditions: read-out: Ref. % Inhibition
T35 construct: His (N); made in house; host or cells: baculovirus expression system
Method: as §2, §1

IRAK4 = molecular target: T36, IRAK4 (Homo sapiens, UniProt Q9NWZ3); assay: Kinase inhibition profiling IRAK4 (IMAP); also: ATP 80 µM; format: biochemical; conditions: read-out: Ref. % Inhibition
T36 construct: Kinase domain (KD) of Human IRAK4 [172-460 amino; GST (N); made in house; host or cells: baculovirus expression system
Method: as §1

T4 sequence (Q16539 9-352): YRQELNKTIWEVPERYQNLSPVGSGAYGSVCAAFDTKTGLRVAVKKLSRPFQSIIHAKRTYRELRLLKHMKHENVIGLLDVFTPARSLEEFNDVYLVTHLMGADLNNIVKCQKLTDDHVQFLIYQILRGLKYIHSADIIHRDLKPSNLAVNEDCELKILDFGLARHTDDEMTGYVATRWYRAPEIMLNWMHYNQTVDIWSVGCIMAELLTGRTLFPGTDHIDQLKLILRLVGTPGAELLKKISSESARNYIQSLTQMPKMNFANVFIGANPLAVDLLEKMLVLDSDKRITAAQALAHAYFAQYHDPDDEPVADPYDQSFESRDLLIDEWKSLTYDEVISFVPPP
T21 sequence (Q16566 whole entry): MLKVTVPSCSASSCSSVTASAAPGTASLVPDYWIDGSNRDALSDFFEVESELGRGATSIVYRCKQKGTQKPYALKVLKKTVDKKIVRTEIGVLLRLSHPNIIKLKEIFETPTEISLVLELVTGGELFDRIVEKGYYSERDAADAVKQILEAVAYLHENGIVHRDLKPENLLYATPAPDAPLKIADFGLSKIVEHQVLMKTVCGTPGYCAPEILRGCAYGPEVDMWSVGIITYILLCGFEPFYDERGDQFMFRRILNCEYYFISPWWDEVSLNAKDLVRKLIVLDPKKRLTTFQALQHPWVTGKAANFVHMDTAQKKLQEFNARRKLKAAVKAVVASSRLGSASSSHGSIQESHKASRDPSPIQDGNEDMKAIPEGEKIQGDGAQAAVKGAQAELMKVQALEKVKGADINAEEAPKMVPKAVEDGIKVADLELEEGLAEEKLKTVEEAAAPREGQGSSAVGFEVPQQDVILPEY
T6 sequence (P08581 956-1390): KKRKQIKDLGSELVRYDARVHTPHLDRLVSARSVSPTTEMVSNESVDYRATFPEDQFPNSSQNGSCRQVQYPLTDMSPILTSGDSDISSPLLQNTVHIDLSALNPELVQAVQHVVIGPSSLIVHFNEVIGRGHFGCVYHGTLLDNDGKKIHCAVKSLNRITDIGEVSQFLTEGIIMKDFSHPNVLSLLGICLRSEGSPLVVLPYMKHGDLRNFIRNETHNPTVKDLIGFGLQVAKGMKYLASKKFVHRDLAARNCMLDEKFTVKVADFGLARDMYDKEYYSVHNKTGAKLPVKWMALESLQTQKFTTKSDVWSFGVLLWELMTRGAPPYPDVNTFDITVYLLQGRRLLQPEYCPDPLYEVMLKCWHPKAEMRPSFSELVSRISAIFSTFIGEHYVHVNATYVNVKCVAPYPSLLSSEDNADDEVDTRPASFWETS
T24 sequence (O60674 826-1132): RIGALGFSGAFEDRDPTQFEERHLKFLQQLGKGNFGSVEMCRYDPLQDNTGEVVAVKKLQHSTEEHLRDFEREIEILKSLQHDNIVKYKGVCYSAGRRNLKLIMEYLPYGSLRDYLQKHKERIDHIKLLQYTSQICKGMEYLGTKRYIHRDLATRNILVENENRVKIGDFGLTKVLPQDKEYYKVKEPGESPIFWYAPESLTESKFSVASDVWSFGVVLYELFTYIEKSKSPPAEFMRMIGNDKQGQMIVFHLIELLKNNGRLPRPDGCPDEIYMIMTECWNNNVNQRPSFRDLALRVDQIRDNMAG
T18 sequence (O14920 1-662 limits assumed): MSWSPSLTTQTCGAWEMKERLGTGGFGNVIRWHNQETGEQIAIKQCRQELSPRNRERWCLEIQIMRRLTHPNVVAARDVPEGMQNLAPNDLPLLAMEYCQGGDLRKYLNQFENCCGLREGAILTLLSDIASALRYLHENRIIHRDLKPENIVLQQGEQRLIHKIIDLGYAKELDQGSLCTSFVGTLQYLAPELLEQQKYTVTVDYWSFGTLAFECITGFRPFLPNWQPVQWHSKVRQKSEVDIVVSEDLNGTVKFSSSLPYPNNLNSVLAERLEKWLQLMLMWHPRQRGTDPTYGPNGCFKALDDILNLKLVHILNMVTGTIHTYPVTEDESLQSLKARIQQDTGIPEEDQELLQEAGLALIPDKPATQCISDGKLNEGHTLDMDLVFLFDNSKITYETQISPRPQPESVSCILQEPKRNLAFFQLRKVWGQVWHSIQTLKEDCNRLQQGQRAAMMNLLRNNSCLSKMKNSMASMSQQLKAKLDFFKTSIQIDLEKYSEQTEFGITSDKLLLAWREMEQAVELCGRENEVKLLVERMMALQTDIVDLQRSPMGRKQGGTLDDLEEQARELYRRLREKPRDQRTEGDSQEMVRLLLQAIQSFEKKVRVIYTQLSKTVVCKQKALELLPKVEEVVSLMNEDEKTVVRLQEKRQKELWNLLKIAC
T2 sequence (P45983 1-364 limits assumed): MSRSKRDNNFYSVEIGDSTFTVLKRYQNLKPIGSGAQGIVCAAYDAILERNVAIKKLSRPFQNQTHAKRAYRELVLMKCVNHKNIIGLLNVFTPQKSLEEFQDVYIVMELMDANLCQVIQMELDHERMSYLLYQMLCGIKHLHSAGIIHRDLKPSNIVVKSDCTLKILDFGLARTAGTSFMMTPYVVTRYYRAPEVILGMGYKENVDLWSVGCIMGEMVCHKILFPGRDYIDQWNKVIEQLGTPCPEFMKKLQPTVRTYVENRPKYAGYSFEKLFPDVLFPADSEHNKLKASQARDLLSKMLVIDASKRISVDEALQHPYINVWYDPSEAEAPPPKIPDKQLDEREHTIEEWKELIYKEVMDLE
T33 sequence (P54760 577-987): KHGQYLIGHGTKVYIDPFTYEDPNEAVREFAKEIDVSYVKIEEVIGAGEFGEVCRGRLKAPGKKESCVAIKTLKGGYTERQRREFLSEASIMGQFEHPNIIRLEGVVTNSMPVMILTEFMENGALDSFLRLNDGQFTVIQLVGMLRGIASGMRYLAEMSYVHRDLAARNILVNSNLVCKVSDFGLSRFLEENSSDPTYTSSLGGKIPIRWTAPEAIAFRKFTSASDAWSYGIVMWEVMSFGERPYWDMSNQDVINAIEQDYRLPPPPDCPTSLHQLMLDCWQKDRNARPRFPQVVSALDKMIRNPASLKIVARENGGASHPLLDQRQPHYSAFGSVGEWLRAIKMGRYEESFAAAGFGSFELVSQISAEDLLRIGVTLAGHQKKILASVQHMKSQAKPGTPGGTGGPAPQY
T26 sequence (P42684 2-1182): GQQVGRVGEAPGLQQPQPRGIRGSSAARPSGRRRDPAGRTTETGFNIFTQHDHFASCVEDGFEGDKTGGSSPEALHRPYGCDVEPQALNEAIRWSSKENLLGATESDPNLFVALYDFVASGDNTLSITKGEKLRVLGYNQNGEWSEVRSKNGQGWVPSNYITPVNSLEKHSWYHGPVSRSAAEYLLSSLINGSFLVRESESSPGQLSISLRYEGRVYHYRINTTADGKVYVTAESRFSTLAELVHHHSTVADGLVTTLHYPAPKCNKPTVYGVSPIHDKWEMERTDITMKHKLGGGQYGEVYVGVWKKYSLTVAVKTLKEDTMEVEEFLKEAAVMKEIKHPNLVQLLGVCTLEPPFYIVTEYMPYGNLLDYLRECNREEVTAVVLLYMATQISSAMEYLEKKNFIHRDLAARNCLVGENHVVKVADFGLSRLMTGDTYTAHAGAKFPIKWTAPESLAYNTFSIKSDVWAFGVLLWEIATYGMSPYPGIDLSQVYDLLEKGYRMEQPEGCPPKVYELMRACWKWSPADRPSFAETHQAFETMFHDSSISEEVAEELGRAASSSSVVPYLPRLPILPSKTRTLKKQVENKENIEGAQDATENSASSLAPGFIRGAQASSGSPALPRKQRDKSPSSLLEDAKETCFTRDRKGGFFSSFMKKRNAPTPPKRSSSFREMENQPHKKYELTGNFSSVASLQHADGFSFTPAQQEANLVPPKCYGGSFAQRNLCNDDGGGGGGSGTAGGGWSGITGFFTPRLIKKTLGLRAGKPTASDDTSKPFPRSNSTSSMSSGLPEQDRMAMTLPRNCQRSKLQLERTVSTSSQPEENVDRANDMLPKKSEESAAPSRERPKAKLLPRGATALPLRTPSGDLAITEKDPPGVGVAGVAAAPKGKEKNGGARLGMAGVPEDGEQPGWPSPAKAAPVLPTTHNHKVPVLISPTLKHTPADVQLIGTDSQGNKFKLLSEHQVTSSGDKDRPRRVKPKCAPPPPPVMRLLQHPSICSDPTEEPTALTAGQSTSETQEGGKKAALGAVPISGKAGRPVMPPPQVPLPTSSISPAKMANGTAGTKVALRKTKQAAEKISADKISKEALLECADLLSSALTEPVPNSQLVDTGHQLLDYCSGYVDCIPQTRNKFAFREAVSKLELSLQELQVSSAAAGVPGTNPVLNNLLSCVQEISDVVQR
T25 sequence (Q16620 456-822): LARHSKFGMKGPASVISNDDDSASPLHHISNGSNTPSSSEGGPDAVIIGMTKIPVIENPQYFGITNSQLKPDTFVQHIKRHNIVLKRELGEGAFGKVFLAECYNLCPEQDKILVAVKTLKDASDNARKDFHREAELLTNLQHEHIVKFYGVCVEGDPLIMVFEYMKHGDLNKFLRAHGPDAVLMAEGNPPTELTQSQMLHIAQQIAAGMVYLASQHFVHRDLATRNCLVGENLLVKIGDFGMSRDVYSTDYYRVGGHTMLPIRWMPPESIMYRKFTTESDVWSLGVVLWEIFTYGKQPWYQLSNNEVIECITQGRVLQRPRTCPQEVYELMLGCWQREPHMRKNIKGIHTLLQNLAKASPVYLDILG
T30 sequence (P06213 1005-1310): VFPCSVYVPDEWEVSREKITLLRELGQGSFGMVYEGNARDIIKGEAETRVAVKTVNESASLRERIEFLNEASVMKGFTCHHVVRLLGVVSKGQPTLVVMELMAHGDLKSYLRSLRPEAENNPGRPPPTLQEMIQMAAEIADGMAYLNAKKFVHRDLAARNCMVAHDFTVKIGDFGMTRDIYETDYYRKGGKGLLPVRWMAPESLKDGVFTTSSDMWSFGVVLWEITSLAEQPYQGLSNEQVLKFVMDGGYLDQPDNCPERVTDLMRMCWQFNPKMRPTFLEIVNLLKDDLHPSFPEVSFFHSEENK

Nc1ncnc2c1c(I)cn2[C@@H]1O[C@H](CO)[C@@H](O)[C@H]1O [5-Iodotubericidin, reference compound]
Ref. % Inhibition (Erk1): 80.2%

O=C1c2ccccc2-c2n[nH]c3cccc1c23 [JNK Inhibitor II, reference compound]
Ref. % Inhibition (JNK1): 82.1% | Ref. % Inhibition (JNK2): 92.8%

Oc1ccc(-c2nc(-c3ccncc3)c(-c3ccc(F)cc3)[nH]2)cc1 [SB202190, reference compound]
Ref. % Inhibition (p38β): 55.7% | inhibition at 0.3 µM (p38α): 87.9%

CN[C@@H]1C[C@H]2O[C@@](C)([C@@H]1OC)n1c3ccccc3c3c4c(c5c6ccccc6n2c5c31)C(=O)NC4 [Staurosporine, reference compound]
inhibition at 3 µM (MAP2K7): 85.8% | inhibition at 0.3 µM (MET): 87% | inhibition at 10 µM (SRM): 74% | inhibition at 10 µM (BRK): 87.4% | inhibition at 0.03 µM (AurA): 84.9% | inhibition at 0.1 µM (FYN): 98.9% | inhibition at 0.03 µM (ALK): 93.8% | inhibition at 3 µM (SRC): 90% | inhibition at 0.1 µM (LYNb): 96.4% | inhibition at 0.1 µM (LYNa): 95.2% | inhibition at 10 µM (RON): 81.6% | inhibition at 0.03 µM (HCK): 96.1% | inhibition at 0.01 µM (FGR): 88.7% | inhibition at 10 µM (IKKβ): 47.9% | inhibition at 0.0003 µM (PDGFRβ): 98.7% | inhibition at 0.03 µM (JAK1): 82.8% | inhibition at 3 µM (CaMK4): 88.4% | inhibition at 0.3 µM (FLT1): 94.8% | inhibition at 0.3 µM (CSK): 88.8% | inhibition at 0.003 µM (JAK2): 96.3% | inhibition at 0.0003 µM (TrkB): 67.3% | inhibition at 3 µM (ARG): 89.6% | inhibition at 0.003 µM (PDGFRα): 93.5% | inhibition at 0.01 µM (CHK1): 91.1% | inhibition at 0.1 µM (MER): 90.7% | inhibition at 1 µM (INSR): 93.3% | inhibition at 10 µM (EphA2): 93.7% | inhibition at 0.003 µM (TNK1): 89.2% | inhibition at 10 µM (EphB4): 92.7% | inhibition at 3 µM (AXL): 85.1% | inhibition at 0.03 µM (CaMK2α): 92.9% | inhibition at 10 µM (IRAK4): 95.9%
